Measurements taken from US4416899A, “Antibiotic BMG162-aF2, a process for production thereof, and antitumor drug containing said new antibiotic as active ingredient” (priority 1980, dated 1983).
Converted amounts (≈) assume the structure as drawn. “Also recorded” adds a separate entry of the source. Counter-ions that a name gives are not always drawn.

Tests used:
[1] = Stability / hydroscopicity; type: physicochemical; settings: hydrochloride salt
[2] = Solubility; type: physicochemical
[3] = Acute toxicity, intravenous; settings: mouse, in vivo
[4] = tested on: Aeromonas sp. (KT-444); assay: Antibacterial activity, agar dilution method (Table 2-2); settings: read-out: Minimum inhibitory concentration
[5] = tested on: mouse leukemia EL-4; assay: Effect on mouse leukemia EL-4; type: in vivo; settings: for rate of elongation of survival period: once a day for 9 days, C57 BL/6 mice, control 11.0 days
[6] = tested on: Aeromonas salmonecida ATCC 14174; assay: Antibacterial activity, agar dilution method (Table 2-2); settings: ATCC14174, read-out: Minimum inhibitory concentration
[7] = tested on: Trichophyton mentagrophytes; assay: Antibacterial activity, agar dilution method (Table 2-3); type: cell-based; settings: nutrient agar + 1% glucose, 27° C., hydrochloride, read-out: Minimum inhibitory concentration
[8] = tested on: Shigella flexneri 4bJS11811; assay: Antibacterial activity, agar dilution method (Table 2-1); type: cell-based; settings: nutrient agar, 37° C., hydrochloride, read-out: Minimum inhibitory concentration
From the text: (§1) | Medium used: nutrient agar

[9] = tested on: Shigella sonnei JS11746; assay: as above; type: cell-based; settings: nutrient agar, 37° C., hydrochloride, read-out: Minimum inhibitory concentration
From the text: as §1

[10] = tested on: Candida Yu-1200; assay: Antibacterial activity, agar dilution method (Table 2-3); type: cell-based; settings: YU1200, nutrient agar + 1% glucose, 27° C., hydrochloride, read-out: Minimum inhibitory concentration
[11] = tested on: mouse Ehrlich ascites tumor; assay: Effect on mouse Ehrlich ascites tumor; settings: for rate of elongation of survival period: once a day for 9 days, ICR mice, control 13.8 days
[12] = tested on: Candida krusei NI7492; assay: Antibacterial activity, agar dilution method (Table 2-3); type: cell-based; settings: Pichia kudriavzevii, nutrient agar + 1% glucose, 27° C., hydrochloride, read-out: Minimum inhibitory concentration
[13] = tested on: Bacillus subtilis NRRL B-558; assay: Antibacterial activity, agar dilution method (Table 2-1); type: cell-based; settings: NRRLB558, nutrient agar, 37° C., hydrochloride, read-out: Minimum inhibitory concentration
[14] = tested on: Salmonella typhi T-63; assay: as above; type: cell-based; settings: Salmonella enterica, read-out: Minimum inhibitory concentration
[15] = tested on: Aeromonas punctata IAM1646; assay: Antibacterial activity, agar dilution method (Table 2-2); settings: Aeromonas caviae, IAM1646, read-out: Minimum inhibitory concentration
[16] = tested on: Saccharomyces cerrevisiae; assay: Antibacterial activity, agar dilution method (Table 2-3); type: cell-based; settings: nutrient agar + 1% glucose, 27° C., hydrochloride, read-out: Minimum inhibitory concentration
[17] = tested on: Gram-positive and Gram-negative bacteria; assay: Antibacterial activity, agar dilution method (summary in words); type: cell-based; settings: as the hydrochloride salt
[18] = tested on: Sarcina lutea PCI1001; assay: Antibacterial activity, agar dilution method (Table 2-1); type: cell-based; settings: Micrococcus luteus, nutrient agar, 37° C., hydrochloride, read-out: Minimum inhibitory concentration
[19] = tested on: mouse Sarcoma 180; assay: Effect on Sarcoma 180; settings: for rate of elongation of survival period: once a day for 9 days, ICR mice, control 13.8 days
[20] = tested on: Pseudomonas lachrymans; assay: Antibacterial activity, agar dilution method (Table 2-2); settings: read-out: Minimum inhibitory concentration

N=C(N)NCCCCC(O)CC(=O)NC(O)C(=O)NCCCCNCCCN (stereo not shown) [BMG162-aF2 hydrochloride]
hydroscopicity [1]: so hydroscopic that it forms a hydrate
solubility ([2]; benzene): only slightly soluble or insoluble
solubility ([2]; chloroform): only slightly soluble or insoluble
solubility ([2]; ethanol): only slightly soluble or insoluble
solubility ([2]; ethyl acetate): only slightly soluble or insoluble
solubility ([2]; methanol): easily soluble
solubility ([2]; water): easily soluble
LD50 [3]: > 80 mg/kg

N=C(N)NCCCCC(O)CC(=O)NC(O)C(=O)NCCCCNCCCN (stereo not shown) [BMG162-aF2]
MIC [4]: > 100 µg/mL
rate of elongation of survival period ([5]; 0.313 mg/kg/day ip): 131
rate of elongation of survival period ([5]; 0.625 mg/kg/day ip): 130
rate of elongation of survival period ([5]; 1.25 mg/kg/day ip): 159
rate of elongation of survival period ([5]; 2.5 mg/kg/day ip): 164
rate of elongation of survival period ([5]; 5 mg/kg/day ip): 193
effect on mouse leukemia EL-4 ([5]; hydrochloride, ip): remarkable effects of cure and elongation of survival period
MIC [6]: > 100 µg/mL
MIC [7]: > 100 µg/mL
MIC [8]: > 100 µg/mL
MIC [9]: > 100 µg/mL
MIC [10]: > 100 µg/mL
rate of elongation of survival period ([11]; 1.56 mg/kg/day ip): 133
rate of elongation of survival period ([11]; 3.13 mg/kg/day ip): 188
rate of elongation of survival period ([11]; 6.25 mg/kg/day ip): 236
rate of elongation of survival period ([11]; 12.5 mg/kg/day ip): 170
rate of elongation of survival period ([11]; 25 mg/kg/day ip): 72
rate of elongation of survival period ([11]; 50 mg/kg/day ip): 54
Toxic sign ([11]; 50, 25 and 12.5 mg/kg/day ip (footnote *)): Toxic sign appeared
effect on Ehrlich ascites tumor ([11]; hydrochloride, ip): remarkable effects of cure and elongation of survival period; also recorded: showed an effect against a transplanted tumor
MIC [12]: > 100 µg/mL
MIC [13]: 100 µg/mL (≈ 248 µM)
MIC [14]: > 100 µg/mL
MIC [15]: > 100 µg/mL
MIC [16]: > 100 µg/mL
inhibitory activity against Gram-positive and Gram-negative bacteria [17]: only weak inhibitory activity; also recorded: weakly inhibits Gram positive and negative bacteria
MIC [18]: 100 µg/mL (≈ 248 µM)
rate of elongation of survival period ([19]; 1.56 mg/kg/day ip): 220
rate of elongation of survival period ([19]; 3.13 mg/kg/day ip): 243
rate of elongation of survival period ([19]; 6.25 mg/kg/day ip): 181
rate of elongation of survival period ([19]; 12.5 mg/kg/day ip): > 279
rate of elongation of survival period ([19]; 50 mg/kg/day ip): 53
Toxic sign ([19]; 50, 12.5 and 6.25 mg/kg/day ip (footnote *)): Toxic sign appeared
effect on Sarcoma 180 ([19]; hydrochloride, ip): remarkable effects of cure and elongation of survival period; also recorded: showed an effect against a transplanted tumor
MIC [20]: 50 µg/mL (≈ 124 µM)
